Reference: patent US20160221948A1, “NITROGEN-CONTAINING SATURATED HETEROCYCLIC COMPOUND” (SUMITOMO CHEMICAL COMPANY, LIMITED, priority 2013, published 2016)

System: not listed separately
Assay: Pharmacokinetic test (PK test) using rodents
Type: in vivo
Conditions: mouse, brain and plasma; mice, 10 mg/kg oral, an hour and 4 hours after; read-out: brain-plasma concentration ratio
Description: Moreover, it was verified, as the results of a pharmacokinetic test (PK test) using rodents, that the compound of the present invention has more excellent in vivo kinetics, central nervous system penetration, and exposure level, compared with the pyrrolidine derivative described in Patent Literature 1. In particular, the following Test Example 8 was performed.
Pharmacokinetic Test (PK Test) Using Rodents
Compounds of the present invention were orally administered to mice at a dose of 10 mg/kg, and an hour and 4 hours after, the plasma and the brain were collected, concentrations of the administered compounds were measured by LC/MS/MS. As well, protein binding rates in the plasma and the brain were measured with equilibrium dialysis method, and concentrations of non-binding compounds were calculated. The brain-plasma concentration ratio was about 5 in any cases of an hour and 4 hours after for compounds obtained in Examples 7, 14, 15, 16, 17, 18, 20, 21, 27, 40, and 50, which indicated excellent central nervous system penetration.

| Kp | Compound |
| --- | --- |
| ~5 | Cc1c(Cl)cccc1C(C)(C)NC(=O)C1CCCN(C)C1 (stereo not shown) [Example 14] |

Target: human SSTR4 (Homo sapiens, UniProt P31391)
Assay: Evaluation of agonist activities using human SSTR4-stably expressing cells (aequorin luminescence)
Type: cell-based
Design: expressed in transfected cells; host or cells: HEK293
Conditions: Tables 25 to 27
Description: Evaluation of Agonist Activities Using Cells that stably expressing human-derived SSTR4 (human SSTR4-stably expressing cells)
(1) Human SSTR4-Stably Expressing Cells
Human SSTR4-stably expressing cells were prepared, and cultured. Specifically, HEK293 cells, human kidney-derived cells, were used as host cells. By introducing pcDNA3.1 (cat. No. V79020, invitrogen, Carlsbad, Calif., USA) to which human SSTR gene was inserted into HEK293 cells, human SSTR4-stably expressing cell line was obtained. For selection, G418 (cat. No. 16513-84, Nacalai tesque, Japan) was used.
As the culture medium, D-MEM medium (cat. No. 11995, GIBCO, USA), containing 10% FBS and 200 μg/mL G418, was used, the culture was performed in a 225 cm^2 flask (cat. No. 11-006-010, Iwaki, Japan).
At about 80% confluence, the cells were harvested by treating with 20-fold diluted 0.25% Trypsin-EDTA (cat. No. 35554-64, Nacalai, tesque, Japan). The harvested cells were prepared at a reaction medium composed of Hanks Buffer (cat. No. 14065-056, invitrogen, Carlsbad, Calif., USA)/20 mM Hepes (cat. No. 15630-080, invitrogen, Carlsbad, Calif., USA), and 0.1% BSA (cat. No. A7906, Sigma Aldrich, USA) to 70000 cells/mL. Gα16 and apoaequorin were transiently introduced to the harvested cells, and the cells were seeded to a 384 well plate (cat. No. 781090, Greiner, Germany) at about 2000 cells/30 μL/well. On the next day of cell seeding, Coelenterazine H (cat. No. S2011, Promega, USA) was added to each well (10 μL/well) to make a final concentration of 0.5 μmol/L, and the plate was centrifuged. Then, the plate was left at room temperature for 4 hours in shaded state.
(2) Preparation of Test Compounds
DMSO solution of each test compound having 1000-fold larger concentration than the final concentration was prepared. The DMSO solutions were made to have 10-fold concentration than the final concentration with Hanks/20 mmol/L Hepes/0.1% BSA.
(3) Evaluation of Agonist Activity
For detection of luminescence signal due to SSTR4-stimulation, FDSS7000 (manufactured by Hamamatsu Photonics K.K.) was used. To plates having cells and the luminescence substrate, solutions of test compounds were added, then each luminescence signal was measured for 90 seconds, and each relative luminescence unit (RLU) was calculated. Based on luminescence signal from the wells to which a 1 μmol/L somatostatin solution was added taken as 100%, agonist activity of each test compound was evaluated.

human SSTR4, sequence (P31391 whole entry): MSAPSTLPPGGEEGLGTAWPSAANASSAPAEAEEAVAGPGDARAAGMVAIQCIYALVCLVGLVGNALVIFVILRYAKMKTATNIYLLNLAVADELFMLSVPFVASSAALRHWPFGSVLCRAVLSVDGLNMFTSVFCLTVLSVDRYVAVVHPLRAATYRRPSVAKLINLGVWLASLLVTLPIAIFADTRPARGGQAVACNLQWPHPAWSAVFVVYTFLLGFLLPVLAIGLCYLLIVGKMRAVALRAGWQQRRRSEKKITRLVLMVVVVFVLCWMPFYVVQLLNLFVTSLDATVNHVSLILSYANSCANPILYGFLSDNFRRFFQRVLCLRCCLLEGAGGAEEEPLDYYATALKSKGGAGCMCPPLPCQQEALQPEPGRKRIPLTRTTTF

| Compound | SSTR4 agonist activity compared with other compounds |
| --- | --- |
| CC(C)N1CCC[C@H](C(=O)NC(C)(C)c2cccc3ccccc23)C1 [Example 115, (3S)—N-[2-(naphthalene-1-yl)propane-2-yl]-1-(propane-2-yl)pyperidine-3-carboxamide] | stronger SSTR4 agonist activity |
| CCN1CCCC(C(=O)NC(C)(C)c2cccc3ccccc23)C1 (stereo not shown) [Example 116] | stronger SSTR4 agonist activity |

Other lines, results leading:

| SSTR4 agonist activity compared with other compounds | Compound |
| --- | --- |
| stronger SSTR4 agonist activity | CN1CCC[C@H](C(=O)NC(C)(C)c2cccc(Cl)c2Cl)C1 [Example 19, (3S)—N-[2-(2,3-dichlorophenyl)propane-2-yl]-1-methylpiperidine-3-carboxamide] |
| stronger SSTR4 agonist activity | Cc1cccc(C(C)(C)NC(=O)[C@H]2CCCN(C)C2)c1Cl [Example 26, (3S)—N-[2-(2-chloro-3-methylphenyl)propane-2-yl]-1-methylpiperidine-3-carboxamide] |
| stronger SSTR4 agonist activity | CCN1CCC[C@H](C(=O)NC(C)(C)c2ccccc2Cl)C1 [Example 110, (3S)—N-[2-(2-chlorophenyl)propane-2-yl]-1-ethylpiperidine-3-carboxyamide] |
| stronger SSTR4 agonist activity | C[C@@H]1CC[C@H](C(=O)NC(C)(C)c2cccc3ccccc23)CN1C (relative stereo) [Example 81] |

Same assay, conditions: luminescence signal; 1 μmol/L somatostatin taken as 100%

| Compound | EC50 |
| --- | --- |
| CN1CC(C(=O)NC(C)(C)c2cccc3ccccc23)CC(C)(C)C1 (stereo not shown) [Example 93] | 6 nM |
| C[C@@H]1[C@H](C(=O)NC(C)(C)c2cccc3ccccc23)CCCN1C (relative stereo) [Example 84] | 19.8 nM |
| CC(C)(NC(=O)[C@H]1CCCN(CCF)C1)c1cccc2ccccc12 [Example 113] | 3.1 nM |
| CN1CCC[C@H](C(=O)NC(C)(C)c2cccnc2)C1 [Example 57] | > 100 nM |
| CN1CCC[C@H](C(=O)NC(C)(C)c2ccncc2)C1 [Example 58] | > 100 nM |
| CN1CCC[C@H](C(=O)NC(C)(C)c2ccc(Br)cc2)C1 [Example 68] | > 100 nM |
| Cc1ccc(C)c(C(C)(C)NC(=O)[C@H]2CCCN(C)C2)c1 [Example 49] | 12 nM |
| Cc1cc(Cl)cc(C(C)(C)NC(=O)C2CCCN(C)C2)c1 (stereo not shown) [Example 11] | 8.4 nM |
| Cc1ccc(C(C)(C)NC(=O)C2CCCN(C)C2)cc1C (stereo not shown) [Example 6] | 14.2 nM |
| CC(C)N1CCC[C@H](C(=O)NC(C)(C)c2cccc3ccccc23)C1 [Example 115, (3S)—N-[2-(naphthalene-1-yl)propane-2-yl]-1-(propane-2-yl)pyperidine-3-carboxamide] | 1.9 nM |
| CC(C)(NC(=O)C1CCCN(CCF)C1)c1cccc2ccccc12 (stereo not shown) [Example 112] | > 100 nM |
| CN1CCC[C@H](C(=O)NC(C)(C)c2ccccc2S(C)(=O)=O)C1 [Example 64] | > 100 nM |
| COc1ccccc1C(C)(C)NC(=O)[C@H]1CCCN(C)C1 [Example 53] | 8.8 nM |
| CC(C)c1cc(Cl)ccc1C(C)(C)NC(=O)[C@H]1CCCN(C)C1 [Example 33] | > 100 nM |
| Cc1ccc(C(C)(C)NC(=O)[C@H]2CCCN(C)C2)cc1 [Example 45] | 84.9 nM |
| Cc1cc(C(C)(C)NC(=O)[C@H]2CCCN(C)C2)ccc1Cl [Example 48] | 10 nM |

| Compound | EC50 |
| --- | --- |
| CCN1CCCC(C(=O)NC(C)(C)c2cccc3ccccc23)C1 (stereo not shown) [Example 116] | 1.7 nM |
| COC1CC(C(=O)NC(C)(C)c2cccc3ccccc23)CN(C)C1 (stereo not shown) [Example 91] | 2.6 nM |
| COc1cccc(C(C)(C)NC(=O)[C@H]2CCCN(C)C2)c1 [Example 70] | > 100 nM |
| CN1CCC[C@H](C(=O)NC(C)(C)c2ccccc2)C1 [Example 39] | > 100 nM |
| Cc1ccc(C(C)(C)NC(=O)[C@H]2CCCN(C)C2)c(C)c1 [Example 35, (3S)—N-[2-(2,4-dimethylphenyl)propane-2-yl]-1-methylpiperidine-3-carboxamide] | 3.3 nM |
| CCC(C)N1CCCC(C(=O)NC(C)(C)c2cccc3ccccc23)C1 (stereo not shown) [Example 120] | 22.7 nM |
| CC(C)N1CCCC(C(=O)NC(C)(C)c2cccc3ccccc23)C1 (stereo not shown) [Example 119] | 3.5 nM |
| CCN1CCCC(C(=O)NC(C)(C)c2cccc3ccccc23)C1 (stereo not shown) [Example 111] | 6.9 nM |
| Cc1cccc(C(C)(C)NC(=O)[C@H]2CCCN(C)C2)c1 [Example 44] | 28.2 nM |
| CN1CCC[C@H](C(=O)NC(C)(C)c2ccc(F)cc2)C1 [Example 69] | > 100 nM |
| CC(C)Cc1cc(Cl)ccc1C(C)(C)NC(=O)[C@H]1CCCN(C)C1 [Example 34] | > 100 nM |
| COc1ccc(F)cc1C(C)(C)NC(=O)[C@H]1CCCN(C)C1 [Example 54, (3S)—N-[2-(5-fluoro-2-methoxylphenyl)propane-2-yl]-1-methylpiperidine-3-carboxamide] | 8.2 nM |
| CN1CCC[C@H](C(=O)NC(C)(C)c2cccc(Cl)c2)C1 [Example 41] | 12.8 nM |
| COc1ccccc1C(C)(C)NC(=O)[C@@H]1CN(C)CC[C@@H]1c1ccccc1 (relative stereo) [Example 107] | > 100 nM |
| CCc1ccc(C(C)(C)NC(=O)[C@H]2CCCN(C)C2)c(CC)c1 [Example 32, (3S)—N-[2-(2,4-diethylphenyl)propane-2-yl]-1-methylpiperidine-3-carboxamide] | 4 nM |
| CN1CCC[C@H](C(=O)NC(C)(C)c2cccc(F)c2)C1 [Example 75] | 73.3 nM |

Second part, the molecule after the results:

| EC50 | Compound |
| --- | --- |
| 5.7 nM | Cc1c(Cl)cccc1C(C)(C)NC(=O)C1CCCN(C)C1 (stereo not shown) [Example 14] |
| 21.6 nM | CN1CCC[C@H](C(=O)NC(C)(C)c2cccc(Cl)c2F)C1 [Example 46] |
| 20.9 nM | CN1CCC[C@H](C(=O)NC(C)(C)c2c(F)cccc2Cl)C1 [Example 74] |
| 1.8 nM | CN1CCC[C@H](C(=O)NC(C)(C)c2cccc(Cl)c2Cl)C1 [Example 19, (3S)—N-[2-(2,3-dichlorophenyl)propane-2-yl]-1-methylpiperidine-3-carboxamide] |
| 8.9 nM | Cc1cccc(C(C)(C)NC(=O)C2CCCN(C)C2)c1C (stereo not shown) [Example 8] |
| 7.8 nM | C[C@@H]1CC[C@@H](C(=O)NC(C)(C)c2cccc(Cl)c2Cl)CN1C (relative stereo) [Example 95] |
| 3.3 nM | CN1CCC[C@H](C(=O)NC(C)(C)c2cccc(F)c2Cl)C1 [Example 71, (3S)—N-[2-(2-chloro-3-fluorophenyl)propane-2-yl]-1-methylpiperidine-3-carboxamide] |
| 2.2 nM | Cc1cccc(C(C)(C)NC(=O)[C@H]2CCCN(C)C2)c1Cl [Example 26, (3S)—N-[2-(2-chloro-3-methylphenyl)propane-2-yl]-1-methylpiperidine-3-carboxamide] |
| > 100 nM | CN1CC[C@@H](C(=O)NC(C)(C)c2ccccc2Cl)C1 [Example 80] |
| 81.4 nM | COC[C@@H]1CC[C@@H](C(=O)NC(C)(C)c2cccc3ccccc23)CN1C (relative stereo) [Example 104] |
| 11.7 nM | C[C@@H]1CC[C@H](C(=O)NC(C)(C)c2cccc(Cl)c2Cl)CN1C (relative stereo) [Example 96] |
| 10.9 nM | CN1CCC[C@H](C(=O)NC(C)(C)c2ccc(Cl)c(Cl)c2)C1 [Example 22] |
| 85 nM | CN1CC(C(=O)NC(C)(C)c2cccc(Cl)c2Cl)CCC1(C)C (stereo not shown) [Example 97] |
| 5 nM | COc1ccc(Cl)cc1C(C)(C)NC(=O)[C@H]1CCCN(C)C1 [Example 51, (3S)—N-[2-(5-chloro-2-methoxylphenyl)propane-2-yl]-1-methylpiperidine-3-carboxamide] |
| 7.5 nM | Cc1cccc(C(C)(C)NC(=O)[C@@H]2CC[C@H](C)N(C)C2)c1Cl (relative stereo) [Example 88] |
| 2.8 nM | CCN1CCC[C@H](C(=O)NC(C)(C)c2ccccc2Cl)C1 [Example 110, (3S)—N-[2-(2-chlorophenyl)propane-2-yl]-1-ethylpiperidine-3-carboxyamide] |
| 8 nM | Cc1ccc(C(C)(C)NC(=O)[C@H]2CCCN(C)C2)cc1Cl [Example 47, (3S)—N-[2-(3-chloro-4-methylphenyl)propane-2-yl]-1-methylpiperidine-3-carboxamide] |
| 31.4 nM | COC1CC(C(=O)NC(C)(C)c2cccc(Cl)c2Cl)CN(C)C1 (stereo not shown) [Example 103] |
| 3.6 nM | [2H]C([2H])([2H])N1CCC[C@H](C(=O)NC(C)(C)c2ccccc2Cl)C1 [Example 122] |
| 12.2 nM | Cc1cc(Cl)ccc1C(C)(C)NC(=O)[C@H]1CCCN(C)C1 [Example 28] |
| 3.4 nM | C[C@@H]1CC[C@H](C(=O)NC(C)(C)c2cccc3ccccc23)CN1C (relative stereo) [Example 81] |
| > 100 nM | CC[C@@H]1CC[C@@H](C(=O)NC(C)(C)c2cccc(Cl)c2Cl)CN1C (relative stereo) [Example 99] |
